Results: patent US20240409647A1, “BISPECIFIC BINDING PROTEINS AGAINST ALARMINS AND USES THEREOF” (SINOMAB BIOSCIENCE LIMITED, priority 2022, published 2024)

Assays:
[1] = test system: ILC2 population in human PBMC; experiment: ILC2 cell population in human PBMC culture (flow cytometry); type: cell-based; design: key: −: no inhibition; +: weak; ++: moderate; +++: strong inhibition; conditions: IL-2 (10 unit/mL) and three alarmins (10 ng/ml), 5 days
Text: (§1) While alarmins are known to work in concert to enhance ILC2 and Th2 cell functions such as increase in cell population, steroids such as Dexamethasone (Dex) can negate these effects, resulting in the mitigation of type 2 immune responses [Jia, Yi et al. American Journal Of Respiratory Cell And Molecular Biology, vol. 55, 5 (2016): 675-683]. ILC2 and Th2 cell population can be determined by flow cytometry (BD FACSVerse) following standard procedures known to those skilled in the art.

[2] = test system: Th2 cell population in human PBMC; experiment: Th2 cell population in human PBMC culture (flow cytometry); type: cell-based; design: key: −: no inhibition; +: weak; ++: moderate; +++: strong inhibition; conditions: IL-2 (10 unit/mL) and three alarmins (10 ng/ml), 5 days
Text: as §1

[3] = patients who discontinued ICS and LABA, 12 weeks; placebo 41%; cited from earlier work

Compound | Cell proliferation inhibition, ILC2 [1] | Cell proliferation inhibition, Th2 [2] | rate of loss of asthma control [3]
C[C@@H]1C[C@H]2[C@@H]3CCC4=CC(=O)C=C[C@]4(C)[C@@]3(F)[C@@H](O)C[C@]2(C)[C@@]1(O)C(=O)CO [Dex, Dexamethasone, reference compound] | + | +++ | –
Dupilumab: anti-IL-4Ra antibody inhibiting both IL-4 and IL-13 responses [reference compound] | – | – | 19%
